The values that follow come from patent US20260092054A1, “FUSED RING COMPOUND AND PHARMACEUTICAL CONTAINING SAME” (KAKEN PHARMACEUTICAL CO., LTD., priority 2022, published 2026).

Broadly, the inhibition is how much of the control response was suppressed. By pIC50 is commonly meant the negative decadic logarithm of the IC50, by convention in mol/L. A lower pIC50 goes with a large IC50.

One assay relates to human STAT6. As to the kind of experiment: Human STAT6 dependent reporter activity (IL-4 stimulated STAT6 reporter assay using STAT6-HEK293 cells). The assay is classed as cell-based. Conditions: Homo sapiens, IL-4 stimulation, luciferase activity, read-out: Inhibition rate (%); for inhibition at 0.1 µM: compound 0.1 μmol/L; for inhibition at 1 µM: compound 1 μmol/L. How it is done: Test Example 2: Measurement of Human STAT6 Dependent Reporter Activity
1) Construction of Human STAT6-HEK293 Cells
HEK 293 cells maintenance cultured by [Penicillin-Streptomycin (Thermo Fisher Scientific) and FBS, 1 vol % and 10 vol % respectively added to DMEM high glucose (Thermo Fisher Scientific)](manufactured by ATCC) were collected, and suspended in 10 mL of 0.5% BSA/PBS. 1×10^6 cells were collected, the supernatant was removed by centrifuging, and the cells were suspended in 100 μL of Nucleofector solution V (manufactured by Lonza K.K.). 2 μg of STAT6 vector [plasmid DNAs incorporating human STAT6 sequences in pcDNA3.1 (Invitrogen)] was added, and the STAT6 vector was introduced into the HEK293 cells using the program Q-001 initially registered in the Nucleofector®2b. A cell line (STAT6-HEK293 cells) consistently expressing STAT6 was acquired by selecting resistant cells in a medium containing Geneticin® (manufactured by Thermo Fisher Scientific). 2) STAT6 reporter assay using STAT6-HEK293 cells 3×10^6 STAT6-HEK293 cells maintained in assay medium [culture medium supplemented with 1 vol % Geneticin®] were harvested and seeded in a 10 cm dish. 3 μg of a STAT6 reporter vector [plasmid in which a sequence containing a STAT6 binding sequence and a C/EBP binding sequence in tandem was incorporated into pGL4.27 (manufactured by Promega Corporation)] and 9 μL of FuGENE® HD transfection reagent (manufactured by Promega Corporation) were added to 500 μL of Opti-MEM® (manufactured by Thermo Fisher Scientific) to prepare transfection solutions. The transfection solution was vortexed and left to stand for about 5 minutes, then added dropwise to the STAT6-HEK293 cells, which were then cultured overnight in a C02 incubator to produce STAT6 reporter cells.
The prepared STAT6 reporter cells were seeded on B&W isoplate-96 TC (PerkinElmer Japan Co., Ltd.) (3×10^4 cells/50 μL/well) and cultured overnight in a C02 incubator (37° C., 5% C02). 50 μL of assay medium was added to each well instead of the STAT6 reporter cells. The compound addition solution was prepared by diluting the DMSO solution of the example compound 250-fold using the assay medium. 20 μL of compound addition solution or 0.4 vol % DMSO-containing assay medium was added to the plate, and the plate was then cultured in a CO2 incubator for 1 hour. 10 μL of 80 ng/mL human IL-4 solution (Peprotech) or assay medium was added to each well, and the cells were cultured in a CO2 incubator for 6 hours.
STAT6 reporter activity was measured using the Bright-Glo® Luciferase Assay System (Promega). 100 μL of Bright-Glo® reagent was added to each well, and luciferase activity was measured using Infinite® F500. The inhibition rate of each Example compound was calculated by the following formula using the luciferase activity value (G) when no Example compound was added and stimulation with IL-4 was performed, the luciferase activity value (H) when no Example compound was added and stimulation with IL-4 was not performed, and the luciferase activity value (I) when each Example compound was treated and stimulation with IL-4 was performed.
Note that the viable cell rate under each condition was 70% or more, and it was determined that the luciferase activity inhibitory activity of each example compound was appropriately evaluated.

For another assay, the target named is T1, human STAT6/pIL-4Rα (Homo sapiens, UniProt P42226).
T1 construct: histidine tag
T1 sequence (P42226 123-658): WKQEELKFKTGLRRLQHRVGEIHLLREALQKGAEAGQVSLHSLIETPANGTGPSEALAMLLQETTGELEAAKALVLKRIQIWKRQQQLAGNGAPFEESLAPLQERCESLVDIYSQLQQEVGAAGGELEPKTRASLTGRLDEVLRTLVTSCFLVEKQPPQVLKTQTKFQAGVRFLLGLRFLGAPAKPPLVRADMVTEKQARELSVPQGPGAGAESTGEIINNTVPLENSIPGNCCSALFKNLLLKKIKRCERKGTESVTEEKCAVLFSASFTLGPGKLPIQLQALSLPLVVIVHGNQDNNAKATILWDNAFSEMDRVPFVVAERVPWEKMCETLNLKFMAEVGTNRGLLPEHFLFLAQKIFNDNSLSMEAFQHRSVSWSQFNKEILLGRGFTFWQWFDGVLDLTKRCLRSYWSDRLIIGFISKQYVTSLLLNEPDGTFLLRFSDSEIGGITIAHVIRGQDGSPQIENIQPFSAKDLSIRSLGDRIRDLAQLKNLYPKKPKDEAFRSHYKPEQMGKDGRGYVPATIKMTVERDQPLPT
The experiment in a line: Binding inhibitory activity between human STAT6/pIL-4Rα by fluorescence polarization method. As to conditions: rhSTAT6 (123-658) / FAM-pIL-4Rα peptide. The protocol: Test Example 1: Measurement of Binding Inhibitory Activity Between Human STAT6/pIL-p 4Rα by Fluorescence Polarization Method
1) Construction of Histidine Tag-Fused Recombinant Human STAT6 (123 to 658 Region)
A histidine tag-fused recombinant human STAT6 (hereinafter referred to as rhSTAT6) expression vector [plasmid DNA in which a nucleic acid sequence containing human STAT6 (123-658 region) was inserted into a pET28a(+) vector (Novagen)] was inserted into E. coli, and the cells were cultured overnight under culturing conditions at 17° C. with IPTG treatment. After disrupting E. coli with a high-pressure homogenizer (EmulsiFlex-C3, manufactured by AVESTIN, Inc.), affinity purification using Ni-NTA agarose (manufactured by Qiagen), cation exchange chromatography using HiTrap® CM-FF (manufactured by GE healthcare), and gel filtration chromatography using Superdex® 200 10/300GL (manufactured by GE healthcare) were performed to obtain rhSTAT6.
2) Measurement of Binding Inhibitory Activity Between Human STAT6/pIL-4Rα by Fluorescence Polarization Method
A DMSO solution of the example compound was diluted with an assay buffer [for example, a buffer containing 50 mmol/L NaCl, 10 mmol/L HEPES (pH 7.0), 1 mmol/L DTT, 1 mmol/L EDTA, and 0.01 vol % NP-40, and the like] to prepare a compound-added solution. The DMSO concentration in the compound addition solution was adjusted to 1 or 2 vol %. 10 μL of the compound addition solution and an assay buffer containing 1 or 2 vol % DMSO were added to each well of a 384-well plate. 5 μL of an assay buffer solution containing rhSTAT6 (rhSTAT6 concentration: for example, 1 μmol/L) or an assay buffer was added to each well of a 384-well plate. After leaving the plate at room temperature for 30 minutes in the dark, 5 μL of an assay buffer solution (FAM-pIL-4Rp concentration: for example, 80 nmol/L) containing FAM-labeled phosphorylated IL-4Rα peptide (sequence: FAM-Ala-pTyr-Lys-Pro-Phe-Gln-Asp-Leu-IIe-NH2) (hereinafter, FAM-pIL-4Rp) or an assay buffer containing 2 vol % DMSO was added to each well of the 384-well plate. The mixture was left to stand at room temperature for 30 minutes in the dark, and then centrifuged (200 g, 1 minute, room temperature). Fluorescence polarization values were measured using Infinite (registered trademark) F500 (manufactured by Tecan Japan Co., Ltd.) (Excitation: 485 nm, Emission: 535 nm). The inhibition rate of each Example compound was calculated according to the following formula using the fluorescence polarization value (A) when rhSTAT6 and FAM-pIL-4Rp were added without adding the Example compound, the fluorescence polarization value (B) when FAM-pIL-4Rp was added without adding the Example compound and rhSTAT6, and the fluorescence polarization value (C) when each Example compound, rhSTAT6, and FAM-pIL-4Rp were added.
In the evaluation of each example compound, the 50% inhibitory concentration (IC50) of each example compound was calculated from a linear function equation of a straight line connecting two points sandwiching 50%.

pIC50: −log10 of the molar value.

As for `CCn1c(-c2ccc(N3C(=O)C(C)CC3C)cc2)nc2cc(C(F)(F)F)cc(C(=O)Nc3cccc(C(N)=O)c3)c21` (racemic) [Ex. 11], in the assay on human STAT6, the inhibition at 0.1 µM is 43% and the inhibition at 1 µM came out at 92%. The molecule further had a negative logarithm of the IC50 (pIC50) at human STAT6/pIL-4Rα of 6.36. For `CCn1c(-c2ccc(N3C(=O)C(C)CC3C)cc2)nc2cc(C(F)(F)F)cc(C(=O)Nc3cccc(C(N)=O)c3)c21` (single isomer, unassigned) [Ex. 12] the same measures were 47%, 94% and 6.46.

For the molecule `CCn1c(-c2ccc(N3C(=O)C(C)CC3C)cc2)nc2cc(C(F)(F)F)cc(C(=O)Nc3cccc(C(N)=O)c3F)c21` (single isomer, unassigned) [Ex. 219], in the assay on human STAT6, the inhibition at 0.1 µM was 32% and the inhibition at 1 µM worked out at 96%. The pIC50 on human STAT6/pIL-4Rα was 6.55.

At human STAT6/pIL-4Rα, `CCn1c(-c2ccc(-n3c(C)nn(C)c3=O)cc2)cc2cc(C(F)(F)F)cc(C(=O)Nc3cc[nH]n3)c21` [Ex. 105] showed a pIC50 of 6.11. Still for that read-out and setting: the same measure for `COCCn1c(-c2ccc(-n3c(C)nn(C)c3=O)cc2)cc2ccnc(C(=O)Nc3cccc(C(N)=O)c3)c21` [Ex. 106]: 5.71. On the same count and under the same terms, the same measure for `CCn1c(-c2ccc(-n3c(C)nn(C)c3=O)cc2)cc2cc(C(F)(F)F)cc(C(=O)Nc3ccc(CNC(C)=O)cc3)c21` [Ex. 116]: 5.68. The same measure, in the same setting: the same measure for `COCCn1c(-c2ccc(-n3c(C)nn(C)c3=O)cc2)cc2cc(C(F)(F)F)cc(C(=O)Nc3cccc(C(=O)Nc4ccn(C)n4)c3)c21` [Ex. 117]: 6.49; for `CCn1c(-c2ccc(-n3c(C)nn(C)c3=O)nn2)cc2cc(C(F)(F)F)cc(C(=O)Nc3ccc(F)c(C(N)=O)c3)c21` [Ex. 128]: 6.24; for `CCn1c(-c2ccc(-n3cnn(C)c3=O)cc2)c(Cl)c2cc(C(F)(F)F)cc(C(=O)Nc3cccc(C(N)=O)c3)c21` [Ex. 141]: 6.04.

`COCCn1c(-c2ccc(-n3c(C)nn(C)c3=O)cc2)cc2cc(C(F)(F)F)cc(C(=O)Nc3cccc(C(=O)O)c3)c21` [Ex. 162] had a pIC50 on human STAT6/pIL-4Rα of 6.52. Same read-out and setting: the value for `CCn1c(-c2ccc(-n3c(C)nn(C)c3=O)cc2)cc2ccnc(C(=O)Nc3cccc(C(=O)O)c3)c21` [Ex. 164] was 6.49; that for `COCCn1c(-c2ccc(-n3c(C)nn(C)c3=O)cc2)cc2cc(C(F)(F)F)cc(C(=O)Nc3cccc(C(=O)O)n3)c21` [Ex. 184] was 6.57; that for `C/C=C/c1cc(C(=O)Nc2cccc(C(N)=O)c2)c2c(c1)nc(-c1ccc(N(C)C(C)=O)cc1)n2CCOC` [Ex. 203] was 5.15. On the same count and under the same terms, the value for `CCCc1cc(C(=O)Nc2cccc(C(N)=O)c2)c2c(c1)nc(-c1ccc(N(C)C(C)=O)cc1)n2CCOC` [Ex. 204] was 5.63; that for `COCCn1c(-c2ccc(N(C)C(C)=O)cc2)nc2cc(CCC(C)(C)OC)cc(C(=O)Nc3cccc(C(N)=O)c3)c21` [Ex. 205] was 5.07; that for `C#Cc1cc(C(=O)Nc2cccc(C(N)=O)c2)c2c(c1)nc(-c1ccc(N(C)C(C)=O)cc1)n2CCOC` [Ex. 206] was 5.44.

`C=Cc1cc(C(=O)Nc2cccc(C(N)=O)c2)c2c(c1)nc(-c1ccc(N(C)C(C)=O)cc1)n2CCOC` [Ex. 207] gave a negative-log IC50 (pIC50) at human STAT6/pIL-4Rα of 5.53. The pIC50 values of the last two molecules are within 0.2 log units of each other. Still for that read-out and setting: the same measure for `COCCn1c(-c2ccc(N(C)C(C)=O)cc2)nc2cc(C3CC3)cc(C(=O)Nc3cccc(C(N)=O)c3)c21` [Ex. 208]: 5.68.

Regarding `COCCn1c(-c2ccc(N(C)C(C)=O)cc2)nc2cc(-c3ccccc3)cc(C(=O)Nc3cccc(C(N)=O)c3)c21` [Ex. 209], at human STAT6/pIL-4Rα, the negative logarithm of the IC50 (pIC50) was 5.18. The same measure, in the same setting: the value for `COCCn1c(-c2ccc(N(C)C(C)=O)cc2)nc2cc(C(C)C)cc(C(=O)Nc3cccc(C(N)=O)c3)c21` [Ex. 210] was 5.56; that for `COCCn1c(-c2ccc(N(C)C(C)=O)cc2)nc2cc(CC(C)C)cc(C(=O)Nc3cccc(C(N)=O)c3)c21` [Ex. 211] was 5.30. Turning to `COCCn1c(-c2ccc(N(C)C(C)=O)cc2)nc2cc(C3CCCC3)cc(C(=O)Nc3cccc(C(N)=O)c3)c21` [Ex. 212], the pIC50 on human STAT6/pIL-4Rα was 5.04. Against the preceding molecule, the pIC50 is 0.26 log units lower.

At human STAT6/pIL-4Rα, `COCCn1c(-c2ccc(N(C)C(C)=O)cc2)nc2cc(CO)cc(C(=O)Nc3cccc(C(N)=O)c3)c21` [Ex. 213] had a negative logarithm of the IC50 (pIC50) of 5.46.

Turning to `COCCn1c(-c2ccc(N(C)C(C)=O)cc2)nc2cc(CC#N)cc(C(=O)Nc3cccc(C(N)=O)c3)c21` [Ex. 214], the negative-log IC50 (pIC50) at human STAT6/pIL-4Rα was 5.40. This pIC50 and that of the molecule before are within 0.2 log units of each other. In the case of `COCCn1c(-c2ccc(N(C)C(C)=O)cc2)nc2cc(COC)cc(C(=O)Nc3cccc(C(N)=O)c3)c21` [Ex. 215], on human STAT6/pIL-4Rα, the pIC50 is 5.53. `COCCn1c(-c2ccc(-n3c(C)nn(C)c3=O)cc2)cc2cc(C(F)(F)F)cc(C(=O)Nc3cccc(NS(C)(=O)=O)n3)c21` [Ex. 217] gave a pIC50 at human STAT6/pIL-4Rα of 6.23.

For `C/C(=C\C(=O)N[C@H](C(=O)N1CCC[C@H]1C(=O)N(C)c1ccccc1)C(C)(C)C)c1ccc(OP(=O)(O)O)cc1` [PM-301H, reference compound], on human STAT6/pIL-4Rα, the pIC50 was 6.57. Against the preceding molecule, the pIC50 is 0.34 log units higher.
